{"source": "paper PMC6369212", "about": "“Cytochrome P450 3A Enzymes Are Key Contributors for Hepatic Metabolism of Bufotalin, a Natural Constitute in Chinese Medicine Chansu” (Frontiers in Pharmacology, 2019)", "key": {"in vitro": {"assay": "in vitro", "settings": "human; for Km: pH 7.4, Km, BFT 5β-hydroxylation, HLM 0.25 mg protein/mL, 30 min, biphasic kinetics", "method": "(§1) Human liver microsomes or CYPs were incubated with NADPH-generating system, which included NADP^+ (1 mM), glucose-6-phosphate (10 mM), glucose-6-phosphate dehydrogenase (1 unit/ml), and 4 mM MgCl2 in 100 mM potassium phosphate buffer (pH 7.4) in a total incubation volume of 200 μl. After a 3 min preincubation at 37°C, the reaction was initiated by the addition of NADPH-generating system and further incubated at 37°C for 30 min. The reaction was quenched with 100 μl of ice-cold acetonitrile. The samples were chilled, spun at 20,000 × g for 20 min at 4°C. Aliquots of supernatants were then stored at -20°C until analysis. All incubations throughout the study were done in three experiments conducted in duplicate with S.D. values generally below 10%.\n(§2) The formation rates of 5-HBFT was within the linear range of the incubation time and protein concentration. […] BFT was incubated with pooled HLM (0.25 mg protein/mL) for 30 min, or with recombinant CYP3A4 (5 nM) and CYP3A5 (10 nM) for 30 min. […] The kinetic constants were calculated with GraphPad Prism software, version 6.0, and the results were graphically represented by Eadie–Hofstee plots.\n(§3) (1) v=Vmax 1[S]/Kmax 1+[S]+Vmax 2[S]/Kmax 2+[S]\n(§4) where v is the rate of the reaction, [S] is the substrate concentration, Vmax is the maximum velocity estimate, Km is the substrate affinity constant.\n(§5) Km values are μM, Vmax values were in nmol/min/mg protein for liver microsomes, or in nmol/min/nmol CYP for CYP3A. […] Each value was the mean ± S.D. of three determinations performed in duplicate."}, "[1]": {"tested_on": "CC(=O)O[C@H]1C[C@]2(O)[C@@H]3CC[C@@H]4C[C@@H](O)CC[C@]4(C)[C@H]3CC[C@]2(C)[C@H]1c1ccc(=O)oc1", "assay": "cells, lysate or membranes named", "settings": "other: CYP3A5 10 nM, 30 min, substrate inhibition kinetics; pH 7.4; 37.0 °C", "method": "as §1\n(§6) BFT was incubated with pooled HLM (0.25 mg protein/mL) for 30 min, or with recombinant CYP3A4 (5 nM) and CYP3A5 (10 nM) for 30 min. […] The kinetic constants were calculated with GraphPad Prism software, version 6.0, and the results were graphically represented by Eadie–Hofstee plots.\n(2) v=Vmax/1+(Km/[S])+([S]/Ksi)\n(§7) where Ksi is the substrate inhibition constant.\nas §5"}, "[2]": {"tested_on": "BFT 5β-hydroxylation in pooled HLM", "assay": "Chemical inhibition of BFT 5β-hydroxylation by selective CYP inhibitors in HLM", "type": "in vitro ADME, human", "settings": "BFT 10 μM, HLM 0.25 mg protein/ml", "method": "as §1"}, "HLM [3]": {"tested_on": "HLM", "assay": "Material balance of BFT and its metabolite in HLM", "type": "in vitro ADME, human", "procedure": "A single metabolite of BFT was identified following incubation with HLM (0.3 mg protein/ml) in the presence of the NADPH-generating system (Figure 1). […] The metabolite was characterized by UFLC-DAD-ESI-MS, and the formation of monohydroxylbufotalin was NADPH-, time-, and microsome-dependent. […] The [M+H]^+ and [M+CH3CN+H]^+ ion of the metabolite at m/z in HLM were 461.3 and 502.4, respectively."}, "other P450 isoforms": {"tested_on": "other P450 isoforms", "assay": "Reaction phenotyping of BFT hydroxylation with other recombinant P450 isoforms", "type": "in vitro ADME, human", "settings": "BFT 3 and 100 μM, isoforms other than CYP3A4 and CYP3A5", "excerpt": "BFT and BF were purchased from Shanghai Winherb Medical Technology Company (Shanghai, China). ABT, furafylline, sulfaphenazole, clomethiazole, omeprazole, 8-methoxypsoralen, ticlopidine, CYP3cide, glucose-6-phosphate dehydrogenase, D-glucose-6-phosphate, and NADP^+ were obtained from Sigma (St. Louis, MO, United States). Montelukast, quinidine, ketoconazole was purchased from Jianglai Biotechnology Co., Ltd. (Shanghai, China). The pooled HLMs (from 50 donors, lot no. X008067) were obtained from BioreclamationIVT (Baltimore, MD, United States). A panel of baculovirus expressed human P450s (CYP1A1, 1A2, 2A6, 2A13, 2B6, 2C8, 2C9, 2C19, 2D6, 2E1, 3A4, 3A5, 4F2, and 4F3), co-expressing NADPH-CYP reductase and cytochrome b5 were obtained from BD Gentest Corp (Woburn, MA, United States). All chemicals and solvents were of analytical grade.\n[…] cDNA-expressed human P450 isoforms co-expressing NADPH-P450 reductase were used for assay of BFT hydroxylation activity."}, "HLM [4]": {"tested_on": "HLM", "method": "as §1, §2, §3, §4, §5"}, "recombinant human CYP3A4": {"target": "recombinant human CYP3A4 (Homo sapiens, UniProt P08684)", "sequence (P08684 2-503 limits assumed)": "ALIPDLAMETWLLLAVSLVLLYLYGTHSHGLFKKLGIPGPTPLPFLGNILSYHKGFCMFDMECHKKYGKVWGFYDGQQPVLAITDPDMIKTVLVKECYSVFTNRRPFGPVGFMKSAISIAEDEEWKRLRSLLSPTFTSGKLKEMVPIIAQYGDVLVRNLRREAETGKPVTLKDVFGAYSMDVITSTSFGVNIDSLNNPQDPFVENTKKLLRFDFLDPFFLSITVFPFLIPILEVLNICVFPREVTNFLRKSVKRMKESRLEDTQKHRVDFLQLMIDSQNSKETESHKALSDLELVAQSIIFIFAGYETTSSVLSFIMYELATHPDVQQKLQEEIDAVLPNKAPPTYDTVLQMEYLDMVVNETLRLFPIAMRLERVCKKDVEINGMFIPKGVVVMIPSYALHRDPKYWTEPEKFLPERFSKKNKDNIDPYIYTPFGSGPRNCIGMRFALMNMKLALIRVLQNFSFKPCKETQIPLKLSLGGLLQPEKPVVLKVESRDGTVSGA", "assay": "Kinetic analysis of 5β-hydroxylation in recombinant CYP3A4", "method": "as §1, §2, §3, §4, §5"}, "recombinant human CYP3A5": {"target": "recombinant human CYP3A5 (Homo sapiens, UniProt P20815)", "sequence (P20815 whole entry)": "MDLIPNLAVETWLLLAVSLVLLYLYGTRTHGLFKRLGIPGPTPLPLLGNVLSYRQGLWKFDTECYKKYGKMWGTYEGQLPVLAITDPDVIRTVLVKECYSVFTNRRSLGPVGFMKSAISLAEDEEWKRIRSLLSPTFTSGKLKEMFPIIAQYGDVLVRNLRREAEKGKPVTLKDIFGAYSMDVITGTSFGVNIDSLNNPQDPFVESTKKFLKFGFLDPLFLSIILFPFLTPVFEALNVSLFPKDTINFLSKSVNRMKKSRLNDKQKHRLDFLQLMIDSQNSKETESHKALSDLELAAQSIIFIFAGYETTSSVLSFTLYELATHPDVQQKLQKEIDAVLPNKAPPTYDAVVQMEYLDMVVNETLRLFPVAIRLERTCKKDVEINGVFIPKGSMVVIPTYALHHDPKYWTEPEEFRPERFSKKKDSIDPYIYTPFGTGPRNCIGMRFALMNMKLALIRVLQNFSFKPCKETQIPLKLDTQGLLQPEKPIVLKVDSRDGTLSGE", "assay": "Kinetic analysis of 5β-hydroxylation in recombinant CYP3A5", "method": "as §1, §6\n(2) v=Vmax/1+(Km/[S])+([S]/Ksi)\nas §7, §5"}, "[5]": {"settings": "HLM 0.25 mg protein/mL, 30 min, biphasic kinetics"}, "[6]": {"settings": "CYP3A4 5 nM, 30 min, biphasic kinetics"}, "[7]": {"settings": "CYP3A5 10 nM, 30 min, substrate inhibition kinetics"}}, "note": "Values joined by “and” are separate entries in the source; they are usually repeats but may differ in a detail not shown here. Equal values may be shown once."}
{"compound": "C[C@]12CC[C@H](O)C[C@H]1CC[C@@H]1[C@@H]2CC[C@]2(C)[C@@H](c3ccc(=O)oc3)CC[C@]12O", "note": "[BF, bufalin, reference compound]", "values": [{"measurement": "Km at 30 min", "setting": "in vitro; pH 7.4", "result": "8 ± 0.52", "unit": "µM"}]}
{"compound": "recombinant human CYP3A5 (Homo sapiens)", "values": [{"measurement": "Km", "setting": "[1]", "result": "2.91 ± 0.24", "unit": "µM"}, {"measurement": "kcat", "setting": "[1]", "result": "3.45 ± 0.09 nmol/min per nanomole P450"}]}
{"compound": "Cc1ccc(-c2c(-c3nn(C)c4ncnc(N5CC[C@H](N6CCCCC6)C5)c34)cnn2C)cc1", "note": "[CYP3cide]", "values": [{"measurement": "inhibition of 5-HBFT formation in HLM", "setting": "[2]", "result": "~90", "unit": "%"}]}
{"compound": "Nn1nnc2ccccc21", "note": "[ABT, 1-aminobenzotriazole]", "values": [{"measurement": "inhibition of 5-HBFT formation in HLM", "setting": "[2]", "result": "completely"}]}
{"compound": "CC(=O)OC1CC2(O)C3CCC4(O)CC(O)CCC4(C)C3CCC2(C)C1c1ccc(=O)oc1", "note": "(stereo not drawn) [5-HBFT, 5β-hydroxylbufotalin]", "values": [{"measurement": "Compound (%), material balance", "setting": "HLM [3]; time 0 min", "result": 0, "unit": "%"}, {"measurement": "Compound (%), material balance", "setting": "HLM [3]; time 30 min", "result": 11.1392, "unit": "%"}, {"measurement": "Compound (%), material balance", "setting": "HLM [3]; time 60 min", "result": 24.5928, "unit": "%"}]}
{"compound": "CC(=O)O[C@H]1C[C@]2(O)[C@@H]3CC[C@@H]4C[C@@H](O)CC[C@]4(C)[C@H]3CC[C@]2(C)[C@H]1c1ccc(=O)oc1", "note": "[BFT, bufotalin]", "values": [{"measurement": "metabolite formation by other P450 isoforms", "setting": "other P450 isoforms", "result": "no metabolites were detected"}, {"measurement": "Compound (%), material balance", "setting": "HLM [3]; time 0 min", "result": 99.5, "unit": "%"}, {"measurement": "Compound (%), material balance", "setting": "HLM [3]; time 30 min", "result": 88.0247, "unit": "%"}, {"measurement": "Compound (%), material balance", "setting": "HLM [3]; time 60 min", "result": 73.5708, "unit": "%"}, {"measurement": "Vmax, high-affinity site (Vmax1), BFT 5β-hydroxylation", "setting": "HLM [4]; [5]", "result": "33.31 per min/mg and 33.31 ± 12.64 per min/mg"}, {"measurement": "Vmax, low-affinity site (Vmax2), BFT 5β-hydroxylation", "setting": "HLM [4]; [5]", "result": "107.30 per min/mg and 107.30 ± 11.77 per min/mg"}, {"measurement": "kinetic behavior of BFT 5β-hydroxylation", "setting": "HLM [4]; HLM, Eadie–Hofstee plot", "result": "biphasic kinetics"}, {"measurement": "Km", "setting": "in vitro; high-affinity site (Km1)", "result": "3.71 ± 2.68", "unit": "µM"}, {"measurement": "Km", "setting": "in vitro; low-affinity site (Km2)", "result": "134 ± 72.2", "unit": "µM"}, {"measurement": "Vmax, high-affinity site (Vmax1), BFT 5β-hydroxylation", "setting": "recombinant human CYP3A4; [6]", "result": "6.87 per min/nmol P450 and 6.87 ± 3.59 per min/nmol P450"}, {"measurement": "Vmax, low-affinity site (Vmax2), BFT 5β-hydroxylation", "setting": "recombinant human CYP3A4; [6]", "result": "33.70 per min/nmol P450 and 33.70 ± 3.08 per min/nmol P450"}, {"measurement": "kinetic behavior of BFT 5β-hydroxylation", "setting": "recombinant human CYP3A4; CYP3A4, Eadie–Hofstee plot", "result": "biphasic kinetics"}, {"measurement": "CLint, BFT 5β-hydroxylation", "setting": "recombinant human CYP3A5; CYP3A5", "result": 1186.12}, {"measurement": "Ksi (substrate inhibition constant), BFT 5β-hydroxylation", "setting": "recombinant human CYP3A5; [7]", "result": "170.00 ± 12.69", "unit": "µM"}, {"measurement": "Vmax, BFT 5β-hydroxylation", "setting": "recombinant human CYP3A5; [7]", "result": "3.45 nmol/min per nanomole P450"}, {"measurement": "kinetic behavior of BFT 5β-hydroxylation", "setting": "recombinant human CYP3A5; CYP3A5, Eadie–Hofstee plot", "result": "substrate inhibition kinetic"}]}
